Measured values taken from US11608343B2, “Substituted pyrimido[5,4-d]pyrimidines as HER2 inhibitors” (Boehringer Ingelheim International GmbH, priority 2020, dated 2023).

Experiments:
Type in all cases: cell-based
[1] = system: NCI-H2170 HER2 YVMA cells; test: Tumor cell line proliferation assay, NCI-H2170 HER2 YVMA, CellTiter-Glo; settings: Homo sapiens, 72 h, read-out: GI50 NCI H-2170 HER2 YVMA
From the text: HER2 YVMA Tumor Cell Line Model Generation and Proliferation Assays
Homology-directed genome engineering is employed to insert a 12 nucleotide sequence encoding YVMA into Exon 20 of the genomic HER2 locus in NCI-H2170 cells. […] The DNA template containing the HER2 exon 20 YVMA insertion variant was obtained from GenScript. PCR followed by Sanger sequencing is used to confirm the presence of the 12-nucleotide insertion in HER2 Exon 20 resulting in the YVMA amino acid duplication.
(§1) For proliferation assays, NCI-H2170 (HER2 wild type), NCI-H2170 HER2 YVMA and EGFR WT dependent A431 cells are used. NCI-H2170 HER2 YVMA or NCI-H2170 cells are seeded into 96-well plates at 750 cells/60 μL in growth media (RPMI ATCC+10% FCS, +Penicillin/Streptomycin). […] Compounds are added by using a HP D3000 Digital Dispenser one day after plating the cells. All treatments are performed in technical triplicates. Treated cells are incubated for 72 h at 37° C. with 5% CO2. CellTiter-Glo® Luminescent Cell Viability Assay (Promega) is performed and chemoluminescence is measured by using the multilabel Plate Reader VICTOR X4. The raw data are imported into and analyzed with the Boehringer Ingelheim proprietary software MegaLab (curve fitting based on the program PRISM, GraphPad Inc.).

[2] = system: Ba/F3 cells expressing EGFR WT; test: Ba/F3 proliferation assay, EGFR WT (EGF dependent), CellTiter-Glo; settings: Mus musculus, BaF3, EGF instead of IL-3, 72 h, read-out: GI50 BAF3 EGF dep.
Protocol: (§2) Ba/F3 Cell Model Generation and Proliferation Assays
(§3) Plasmids containing HER2 mutants and EGFR WT were obtained from GeneScript. To generate EGFR/HER2-dependent Ba/F3 models, Ba/F3 cells are transduced with retroviruses containing vectors that harbor EGFR WT, HER2 WT or HER2 mutants (YVMA). Platinum-E cells (Cell Biolabs) are used for retrovirus packaging. Retrovirus is added to Ba/F3 cells. To ensure infection, 4 μg/mL polybrene is added and cells are spin-infected. Infection efficiency is confirmed by measuring GFP-positive cells using a cell analyzer. Cells with an infection efficiency of 10% to 20% are further cultivated and puromycin selection with 1 μg/mL is initiated. As a control, parental Ba/F3 cells are used to assess the selection status. Selection is considered successful when parental Ba/F3 cells cultures die. To evaluate the transforming potential of HER2 mutations, the growth medium is no longer supplemented with IL-3. Ba/F3 cells harboring the empty vector are used as a control. A switch from IL-3 to EGF is performed for Ba/F3 cells expressing EGFR WT known for its dependency on EGF ligand. Approximately ten days before conducting the experiments, puromycin is left out. For proliferation assays (data in tables 10 and 12), Ba/F3 cells are seeded into 96-well plates at 5×10^3 cells/100 μL in growth media. Compounds are added by using a HP D3000 Digital Dispenser. All treatments are performed in technical triplicates. Treated cells are incubated for 72 h at 37° C. with 5% CO2. A CellTiter-Glo® Luminescent Cell Viability Assay (Promega) is performed and chemoluminescence is measured by using the multilabel Plate Reader VICTOR X4. The raw data are imported into and analyzed with the Boehringer Ingelheim proprietary software MegaLab (curve fitting based on the program PRISM, GraphPad Inc.).

[3] = system: Ba/F3 cells HER2 mutants (YVMA); test: Ba/F3 proliferation assay, HER2 YVMA, CellTiter-Glo; settings: Mus musculus, BaF3, 72 h
Protocol: as §2, §3

Ba/F3 cells HER2 WT = test: Ba/F3 proliferation assay, HER2 WT, CellTiter-Glo; settings: Mus musculus, BaF3, 72 h
Protocol: as §2, §3

HER2 YVMA = target: T1, HER2 YVMA (Homo sapiens, UniProt P04626, INS775YVMA); test: pHER2 (ERBB2) YVMA assay: phosphorylation of HER2 YVMA at Tyr1221/1222 in HEK cells (AlphaScreen Surefire); settings: doxycycline induced, 4 h with compound
T1 construct: expressed in transfected cells; host or cells: human HEK cells, retroviral transduction, doxycycline-inducible expression
T1 sequence (P04626 with tags, fused parts or gaps INS775YVMA): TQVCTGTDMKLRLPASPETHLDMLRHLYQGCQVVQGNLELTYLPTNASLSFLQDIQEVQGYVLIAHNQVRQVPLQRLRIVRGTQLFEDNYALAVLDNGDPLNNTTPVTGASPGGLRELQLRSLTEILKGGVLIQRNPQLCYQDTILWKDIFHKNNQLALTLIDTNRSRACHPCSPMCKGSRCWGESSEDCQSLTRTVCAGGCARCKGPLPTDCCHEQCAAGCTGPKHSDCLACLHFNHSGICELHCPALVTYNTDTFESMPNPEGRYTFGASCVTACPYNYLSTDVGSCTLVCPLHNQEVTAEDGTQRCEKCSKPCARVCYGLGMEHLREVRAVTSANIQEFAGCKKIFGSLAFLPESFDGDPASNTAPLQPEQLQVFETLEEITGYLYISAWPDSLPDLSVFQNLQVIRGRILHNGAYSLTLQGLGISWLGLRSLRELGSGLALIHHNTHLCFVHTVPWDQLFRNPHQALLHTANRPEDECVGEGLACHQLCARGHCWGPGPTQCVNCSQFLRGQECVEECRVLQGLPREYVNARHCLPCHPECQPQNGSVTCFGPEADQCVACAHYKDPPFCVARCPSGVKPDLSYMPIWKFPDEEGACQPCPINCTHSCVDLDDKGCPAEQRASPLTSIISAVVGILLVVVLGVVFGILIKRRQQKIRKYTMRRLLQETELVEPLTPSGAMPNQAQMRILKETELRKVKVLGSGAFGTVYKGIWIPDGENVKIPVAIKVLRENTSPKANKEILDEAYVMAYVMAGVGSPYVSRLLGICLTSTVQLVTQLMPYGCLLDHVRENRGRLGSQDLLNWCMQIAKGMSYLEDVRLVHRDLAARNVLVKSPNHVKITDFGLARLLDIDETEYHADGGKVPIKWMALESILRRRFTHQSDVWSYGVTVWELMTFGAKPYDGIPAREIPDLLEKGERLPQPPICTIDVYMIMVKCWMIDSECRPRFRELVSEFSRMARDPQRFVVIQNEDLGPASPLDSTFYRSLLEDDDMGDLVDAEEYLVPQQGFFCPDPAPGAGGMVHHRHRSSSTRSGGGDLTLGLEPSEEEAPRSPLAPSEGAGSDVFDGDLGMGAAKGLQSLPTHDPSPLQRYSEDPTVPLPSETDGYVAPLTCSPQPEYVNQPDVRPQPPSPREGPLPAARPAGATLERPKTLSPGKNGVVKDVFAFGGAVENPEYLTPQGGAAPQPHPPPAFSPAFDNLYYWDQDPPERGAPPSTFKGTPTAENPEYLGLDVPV
Protocol: For the assay, HEK HER2 YVMA cells are seeded in MEM medium with 10% FBS. 4 hours prior to compound addition, HER2 YVMA expression is induced using 1 μg/mL Doxycycline. […] Subsequently, 60.000 cells/well in 60 μL are added. Cells are incubated with compound for 4 h at 37° C. […] The mixture is incubated at a temperature of 20-25° C. with shaking (700 rpm) for 20 min. After centrifugation, 4 μL of the lysate are transferred to Proxiplates. […] Plates are shaken for 1 min (1400 rpm) and incubated for 2 h at a temperature of 20-25° C. in the dark. […] Plates are shaken for 1 min (1400 rpm) and incubated for 2 h at a temperature of 20-25° C. in the dark. Plates are subsequently analyzed using an Envision reader platform. […] IC50 values are computed from these values in the MEGASTAR IC50 application using a 4 parametric logistic model. […] The results of the assay are provided as IC50 values.

[4] = system: NCI-H2170 (HER2 wild type) cells; test: Tumor cell line proliferation assay, NCI-H2170 (HER2 wild type), CellTiter-Glo; settings: Homo sapiens, 72 h, read-out: GI50 NCI H-2170 HER2 wt amp.
Protocol: as §1

[5] = system: EGFR WT dependent A431 cells; test: Tumor cell line proliferation assay, EGFR WT dependent A431 cells, CellTiter-Glo; settings: Homo sapiens, A-431, 72 h, read-out: GI50 A431 EGFR wt amp.
Protocol: as §1

EGFR wild type (WT) = target: T2, EGFR wild type (WT) (Homo sapiens, UniProt P00533); test: pEGFR assay: phosphorylation of EGFR at Tyr1068 in HEK cells expressing EGFR WT (AlphaScreen Surefire); settings: 4 h with compound
T2 construct: expressed in transfected cells; host or cells: human HEK cells (ATCC CRL-1573), retroviral transduction
T2 sequence (P00533 25-1210): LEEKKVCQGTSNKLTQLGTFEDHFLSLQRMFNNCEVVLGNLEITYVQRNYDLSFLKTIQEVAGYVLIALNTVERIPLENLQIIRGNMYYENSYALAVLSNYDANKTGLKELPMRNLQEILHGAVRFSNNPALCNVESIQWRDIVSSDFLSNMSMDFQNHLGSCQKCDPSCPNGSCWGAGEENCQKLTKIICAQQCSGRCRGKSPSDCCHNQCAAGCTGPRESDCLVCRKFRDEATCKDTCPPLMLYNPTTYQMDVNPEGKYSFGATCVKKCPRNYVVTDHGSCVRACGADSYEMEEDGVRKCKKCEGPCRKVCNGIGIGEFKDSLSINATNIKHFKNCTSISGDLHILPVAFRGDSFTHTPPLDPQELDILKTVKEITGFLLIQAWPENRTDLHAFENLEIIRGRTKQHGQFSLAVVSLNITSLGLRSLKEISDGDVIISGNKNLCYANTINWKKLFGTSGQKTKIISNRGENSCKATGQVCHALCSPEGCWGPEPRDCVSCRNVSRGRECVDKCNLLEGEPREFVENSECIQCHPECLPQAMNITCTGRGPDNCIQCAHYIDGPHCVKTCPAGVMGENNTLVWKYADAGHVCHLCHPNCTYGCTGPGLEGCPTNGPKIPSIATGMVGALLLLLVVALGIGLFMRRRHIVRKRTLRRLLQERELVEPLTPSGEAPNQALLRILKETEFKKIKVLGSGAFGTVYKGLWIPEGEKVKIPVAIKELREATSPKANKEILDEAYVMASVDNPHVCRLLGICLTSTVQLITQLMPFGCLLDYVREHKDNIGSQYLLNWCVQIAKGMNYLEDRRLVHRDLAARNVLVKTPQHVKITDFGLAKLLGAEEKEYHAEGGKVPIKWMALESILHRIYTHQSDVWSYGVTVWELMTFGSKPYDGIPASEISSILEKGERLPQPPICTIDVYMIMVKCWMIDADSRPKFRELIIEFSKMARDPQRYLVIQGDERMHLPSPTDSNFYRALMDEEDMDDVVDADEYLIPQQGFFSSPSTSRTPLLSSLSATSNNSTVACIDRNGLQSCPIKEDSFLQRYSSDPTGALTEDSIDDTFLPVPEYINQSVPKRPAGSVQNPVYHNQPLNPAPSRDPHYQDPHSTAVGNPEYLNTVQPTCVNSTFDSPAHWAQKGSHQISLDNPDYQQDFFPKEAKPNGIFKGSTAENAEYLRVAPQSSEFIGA
Protocol: This assay quantifies the phosphorylation of EGFR at Tyr1068 and is used to measure the inhibitory effect of compounds on the transgenic EGFR wild type (WT) protein expressed in HEK cells.
Transduced cells are selected using puromycin. p-EGFR Tyr1068 is determined using the AlphaScreen Surefire pEGF Receptor (Tyr1068) Assay (PerkinElmer, TGRERS). For the assay, HEK EGFR WT cells are seeded in MEM medium with 10% FBS. […] Subsequently, 60.000 cells/well in 60 μL are added. Cells are incubated with compound for 4 h at 37° C. […] The mixture is incubated at a temperature of 20-25° C. with shaking (700 rpm) for 20 min. After centrifugation, 4 μL of the lysate are transferred to Proxiplates. […] Plates are shaken for 1 min (1400 rpm) and incubated for 2 h at a temperature of (20-25° C.) in the dark. […] Plates are shaken for 1 min (1400 rpm) and incubated for 2 h at a temperature of (20-25° C.) in the dark. Plates are subsequently analyzed using an Envision reader platform. […] IC50 values are computed from these values in the MEGASTAR IC50 application using a 4 parametric logistic model.
This cellular phospho-EGFR (pEGFR) compound dose-response assay quantifies the phosphorylation of EGFR at Tyr1068 in HEK cells expressing EGFR WT. The results of the assay are provided as IC50 values.

SMILES | GI50 [2] [µM] | GI50 [3] [µM] | GI50 (Ba/F3 cells HER2 WT) [µM] | IC50 (HER2 YVMA) [µM] | GI50 [5] [µM] | IC50 (EGFR wild type (WT)) [µM] | GI50 [1] [µM] | GI50 [4] [µM]
C#Cc1cc(Nc2ncnc3cnc(N4CC(NC(=O)C=C)C4)nc23)ccc1Oc1ccn2ncnc2c1 [Example I-10] | 1.65 | 0.035 | 0.003 | 0.024 | 1.46 | 0.217 | 0.126 | 0.012
C=CC(=O)NC1(C)CCN(c2ncc3ncnc(Nc4ccc(Oc5ccc6c(c5)ncn6C)c(OC)c4)c3n2)CC1 [Example I-04] | > 5 | 0.032 | 0.003 | 0.026 | > 5 | 0.495 | 0.099 | 0.012
C=CC(=O)NC1CN(c2ncc3ncnc(Nc4ccc(Oc5ccc6c(c5)ncn6C)c(Cl)c4)c3n2)C1 [Example I-08] | 2.3 | 0.036 | 0.002 | 0.058 | 1.5 | 0.336 | 0.044 | 0.008
C=CC(=O)NC1CCN(c2ncc3ncnc(Nc4ccc(Oc5ccn6ncnc6c5)c(C)c4)c3n2)CC1 [Example I-11] | > 2 | 0.028 | 0.002 | 0.022 | 1.25 | 0.521 | 0.172 | 0.008
C=CC(=O)NC1CN(c2ncc3ncnc(Nc4ccc(Oc5ccc6c(c5)ncn6C)c(C)c4)c3n2)C1 [Example I-07] | 1.5 | 0.042 | 0.003 | 0.02 | > 5 | 1.17 | 0.073 | 0.017

These reach a lower GI50 [2]. Values come first.

GI50 [2] [µM] | GI50 [3] [µM] | GI50 (Ba/F3 cells HER2 WT) [µM] | IC50 (HER2 YVMA) [µM] | GI50 [5] [µM] | IC50 (EGFR wild type (WT)) [µM] | SMILES | GI50 [1] [µM] | GI50 [4] [µM]
0.206 | 0.011 | 0.002 | 0.008 | 0.752 | 0.041 | C=CC(=O)N1CC(Nc2ncc3ncnc(Nc4ccc(Oc5ccn6ncnc6c5)c(C)c4)c3n2)C1 [Example I-19] | 0.034 | 0.008
0.425 | 0.018 | 0.002 | 0.012 | 0.948 | 0.086 | C#Cc1cc(Nc2ncnc3cnc(NC4CCN(C(=O)C=C)CC4)nc23)ccc1Oc1ccc2c(c1)ncn2C [Example I-15] | 0.044 | 0.013
1.1 | 0.014 | 0.002 | 0.002 | > 2 | 0.094 | C=CC(=O)N1CC[C@H](Nc2ncc3ncnc(Nc4ccc(Oc5ccn6ncnc6c5)c(C)c4)c3n2)C1 [Example I-17] | 0.039 | 0.009
0.013 | 0.014 | 0.003 | 0.011 | 0.016 | 0.007 | C=CC(=O)Nc1cccc(-n2c(=O)c(Oc3ccc(F)cc3F)cc3cnc(Nc4cnn(C)c4)nc32)c1 [WO 2019/046775 Comp. 2, reference compound] | 0.034 | 0.022
